# Values quoted from earlier work, collected in patent US20220017863A1, “SIRT2-ABLATED CHIMERIC T CELLS” (H. Lee Moffitt Cancer Center and Research Institute, Inc., priority 2019, published 2022).
# Target: T1, SIRT1 (Homo sapiens, UniProt Q96EB6)
# T1 sequence (Q96EB6 1-747): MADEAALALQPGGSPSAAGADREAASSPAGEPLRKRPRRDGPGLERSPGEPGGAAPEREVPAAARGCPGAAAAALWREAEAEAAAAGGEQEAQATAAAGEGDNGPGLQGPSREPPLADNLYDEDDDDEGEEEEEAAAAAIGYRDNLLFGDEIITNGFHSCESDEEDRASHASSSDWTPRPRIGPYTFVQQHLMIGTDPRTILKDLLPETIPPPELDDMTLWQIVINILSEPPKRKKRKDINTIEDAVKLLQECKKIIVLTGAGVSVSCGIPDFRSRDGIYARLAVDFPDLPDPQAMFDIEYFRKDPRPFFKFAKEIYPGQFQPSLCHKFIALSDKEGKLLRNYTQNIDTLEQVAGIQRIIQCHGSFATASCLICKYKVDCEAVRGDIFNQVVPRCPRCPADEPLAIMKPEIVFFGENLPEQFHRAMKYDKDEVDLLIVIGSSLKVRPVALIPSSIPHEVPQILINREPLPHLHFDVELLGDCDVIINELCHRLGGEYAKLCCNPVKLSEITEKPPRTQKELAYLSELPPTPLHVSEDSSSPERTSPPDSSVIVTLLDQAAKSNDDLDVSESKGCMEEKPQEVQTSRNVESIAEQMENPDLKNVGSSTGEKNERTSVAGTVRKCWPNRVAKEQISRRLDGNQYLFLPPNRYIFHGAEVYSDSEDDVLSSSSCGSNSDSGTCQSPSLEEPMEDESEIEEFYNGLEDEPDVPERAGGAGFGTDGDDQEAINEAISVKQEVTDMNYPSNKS
# Details: at 10-fold higher levels than the SIRT2 IC50; cited from earlier work
compound,measurement,value
N#C/C(=C/c1ccc(-c2cc(Cl)ccc2Cl)o1)C(=O)Nc1cccc2ncccc12 [AGK2],effect on SIRT1,minimally affects
